Series [1] is described as follows: SUPPLEMENTARY: Lipophilicity (log D) Determination by high-throughput shake-flask. In kind it is physicochemical. The note with it: octanol/water.
The target in series [2] is T1, Carnitine O-palmitoyltransferase 1, muscle isoform (Homo sapiens, UniProt Q92523).
T1 sequence (Q92523 whole entry): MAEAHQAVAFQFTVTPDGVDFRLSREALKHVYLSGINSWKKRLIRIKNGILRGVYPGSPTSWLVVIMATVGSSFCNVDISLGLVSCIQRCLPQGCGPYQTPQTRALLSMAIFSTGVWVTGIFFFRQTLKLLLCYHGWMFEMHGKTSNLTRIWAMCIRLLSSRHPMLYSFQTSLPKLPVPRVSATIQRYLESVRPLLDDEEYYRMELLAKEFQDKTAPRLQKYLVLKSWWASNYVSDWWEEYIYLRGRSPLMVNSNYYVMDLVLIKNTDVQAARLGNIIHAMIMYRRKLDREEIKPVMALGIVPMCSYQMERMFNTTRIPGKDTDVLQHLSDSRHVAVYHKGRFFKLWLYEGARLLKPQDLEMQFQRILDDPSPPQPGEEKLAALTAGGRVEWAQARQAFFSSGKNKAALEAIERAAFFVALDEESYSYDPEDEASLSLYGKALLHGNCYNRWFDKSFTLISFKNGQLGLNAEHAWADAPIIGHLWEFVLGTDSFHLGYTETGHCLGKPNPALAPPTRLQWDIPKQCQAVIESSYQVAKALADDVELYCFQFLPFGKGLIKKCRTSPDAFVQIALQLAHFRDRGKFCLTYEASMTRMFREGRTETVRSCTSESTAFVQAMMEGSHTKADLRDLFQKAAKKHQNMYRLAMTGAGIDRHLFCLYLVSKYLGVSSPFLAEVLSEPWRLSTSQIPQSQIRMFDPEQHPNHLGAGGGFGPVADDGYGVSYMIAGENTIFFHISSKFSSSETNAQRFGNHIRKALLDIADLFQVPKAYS
In words: SUPPLEMENTARY: Inhibition of Carnitine palmitoyltransferase 1, muscle isoform. The arrangement: species or system Muscle tissue.

A short description of series [3]: SUPPLEMENTARY: Lyophilisation Solubility Assay (LYSA). It counts as physicochemical. As to conditions: read-out: Kinetic_solubility.
The target of series [4] is T2, Carnitine O-palmitoyltransferase 1, liver isoform (Rattus norvegicus, UniProt P32198).
T2 sequence (P32198 whole entry): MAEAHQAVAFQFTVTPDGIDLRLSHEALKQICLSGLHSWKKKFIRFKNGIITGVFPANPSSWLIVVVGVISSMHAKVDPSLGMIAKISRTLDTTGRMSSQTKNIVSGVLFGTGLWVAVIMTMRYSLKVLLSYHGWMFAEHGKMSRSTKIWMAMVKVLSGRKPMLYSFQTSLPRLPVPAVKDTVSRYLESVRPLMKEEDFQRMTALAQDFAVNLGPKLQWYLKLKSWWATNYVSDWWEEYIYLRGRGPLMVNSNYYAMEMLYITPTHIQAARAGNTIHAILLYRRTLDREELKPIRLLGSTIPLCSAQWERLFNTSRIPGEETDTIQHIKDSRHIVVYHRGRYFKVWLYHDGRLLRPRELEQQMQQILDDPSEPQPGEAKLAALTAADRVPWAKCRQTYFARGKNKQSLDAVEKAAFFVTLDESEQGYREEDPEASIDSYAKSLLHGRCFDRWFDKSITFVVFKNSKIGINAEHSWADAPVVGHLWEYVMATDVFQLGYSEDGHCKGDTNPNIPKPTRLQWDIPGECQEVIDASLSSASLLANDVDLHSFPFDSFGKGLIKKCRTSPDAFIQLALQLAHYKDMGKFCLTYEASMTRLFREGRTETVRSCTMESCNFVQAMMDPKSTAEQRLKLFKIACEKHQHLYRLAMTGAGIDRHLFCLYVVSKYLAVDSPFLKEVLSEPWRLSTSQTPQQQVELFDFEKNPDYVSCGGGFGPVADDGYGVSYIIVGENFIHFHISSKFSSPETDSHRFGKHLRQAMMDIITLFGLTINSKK
The experiment in a line: (§1) SUPPLEMENTARY: Inhibition of Carnitine palmitoyltransferase 1, liver isoform.

Series [5] addresses T3, Carnitine O-palmitoyltransferase 1, liver isoform (Homo sapiens, UniProt P50416).
T3 sequence (P50416 whole entry): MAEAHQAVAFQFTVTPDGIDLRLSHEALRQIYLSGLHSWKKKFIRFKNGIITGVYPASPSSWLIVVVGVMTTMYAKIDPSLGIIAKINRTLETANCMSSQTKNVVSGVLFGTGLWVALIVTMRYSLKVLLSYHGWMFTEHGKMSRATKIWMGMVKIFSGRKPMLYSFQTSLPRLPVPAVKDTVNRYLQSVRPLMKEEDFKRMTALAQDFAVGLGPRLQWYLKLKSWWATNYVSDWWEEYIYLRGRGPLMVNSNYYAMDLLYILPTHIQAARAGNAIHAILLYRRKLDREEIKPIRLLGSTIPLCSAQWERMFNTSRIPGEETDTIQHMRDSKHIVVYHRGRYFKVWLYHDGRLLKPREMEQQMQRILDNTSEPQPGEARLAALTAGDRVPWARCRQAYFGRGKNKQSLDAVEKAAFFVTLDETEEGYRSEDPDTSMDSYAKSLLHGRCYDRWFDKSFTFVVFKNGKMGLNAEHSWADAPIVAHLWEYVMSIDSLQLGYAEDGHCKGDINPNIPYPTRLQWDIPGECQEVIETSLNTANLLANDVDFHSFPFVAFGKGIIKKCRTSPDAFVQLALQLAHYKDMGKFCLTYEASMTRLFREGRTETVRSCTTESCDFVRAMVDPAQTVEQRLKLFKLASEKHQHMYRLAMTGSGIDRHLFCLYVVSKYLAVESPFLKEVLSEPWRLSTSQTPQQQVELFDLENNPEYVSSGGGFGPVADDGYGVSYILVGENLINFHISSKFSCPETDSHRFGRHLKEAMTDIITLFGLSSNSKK
The description is as §1.

Series [6] can be described thus: SUPPLEMENTARY: PAMPA permeability assay. It counts as physicochemical. As to conditions: read-out: Permeability.
In series [7] the target is T4, Carnitine O-palmitoyltransferase 2, mitochondrial (Homo sapiens, UniProt P23786).
T4 sequence (P23786 whole entry): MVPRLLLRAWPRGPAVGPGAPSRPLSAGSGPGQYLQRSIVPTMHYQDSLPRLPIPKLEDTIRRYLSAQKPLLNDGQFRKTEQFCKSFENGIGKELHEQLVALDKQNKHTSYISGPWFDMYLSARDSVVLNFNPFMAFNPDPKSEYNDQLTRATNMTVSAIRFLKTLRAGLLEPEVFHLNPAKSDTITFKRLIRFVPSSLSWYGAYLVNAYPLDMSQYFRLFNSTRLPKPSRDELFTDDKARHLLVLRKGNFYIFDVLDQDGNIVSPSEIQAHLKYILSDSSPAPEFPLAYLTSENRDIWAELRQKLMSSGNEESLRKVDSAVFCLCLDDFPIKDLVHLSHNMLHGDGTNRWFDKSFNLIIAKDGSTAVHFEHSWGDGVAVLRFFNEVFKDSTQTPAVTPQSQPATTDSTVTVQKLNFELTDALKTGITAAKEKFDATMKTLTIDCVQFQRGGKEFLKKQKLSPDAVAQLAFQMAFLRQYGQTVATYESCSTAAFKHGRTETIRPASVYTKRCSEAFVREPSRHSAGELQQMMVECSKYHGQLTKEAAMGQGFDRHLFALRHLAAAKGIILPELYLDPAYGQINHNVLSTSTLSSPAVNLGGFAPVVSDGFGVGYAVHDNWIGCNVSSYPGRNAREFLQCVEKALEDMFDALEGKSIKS
In words: (§2) SUPPLEMENTARY: Inhibition of Carnitine palmitoyltransferase 2.

Series [8] has as its target T5, Carnitine O-palmitoyltransferase 2, mitochondrial (Rattus norvegicus, UniProt P18886).
T5 sequence (P18886 whole entry): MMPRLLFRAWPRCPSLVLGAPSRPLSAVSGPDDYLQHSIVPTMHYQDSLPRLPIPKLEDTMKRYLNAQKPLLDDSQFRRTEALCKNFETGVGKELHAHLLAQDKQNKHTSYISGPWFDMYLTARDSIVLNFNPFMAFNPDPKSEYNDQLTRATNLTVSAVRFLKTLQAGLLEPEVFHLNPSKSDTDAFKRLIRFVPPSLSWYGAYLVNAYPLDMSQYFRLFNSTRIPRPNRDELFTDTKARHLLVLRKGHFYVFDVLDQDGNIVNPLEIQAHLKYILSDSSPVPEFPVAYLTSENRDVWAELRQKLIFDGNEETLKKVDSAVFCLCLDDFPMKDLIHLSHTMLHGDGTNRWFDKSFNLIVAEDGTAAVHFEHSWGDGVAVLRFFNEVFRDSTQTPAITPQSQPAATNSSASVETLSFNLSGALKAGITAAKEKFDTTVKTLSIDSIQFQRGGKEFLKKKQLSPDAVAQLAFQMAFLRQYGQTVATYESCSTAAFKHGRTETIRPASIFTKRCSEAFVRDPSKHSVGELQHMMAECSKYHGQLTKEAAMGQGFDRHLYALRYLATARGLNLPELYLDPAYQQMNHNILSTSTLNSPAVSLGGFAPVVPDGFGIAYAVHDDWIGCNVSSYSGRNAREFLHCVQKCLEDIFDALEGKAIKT
Described as §2.

Values after ≈ are worked out from the molar mass of the structure shown.

Compound `O=C([C@H]1CCCCN1C(=O)COc1ccccc1)N1Cc2ccc(Cl)cc2C1` registered a logD in series [1] of 3.26. The concentration for half-maximal inhibition (IC50) in series [2] was greater than 100000 nM; in series [4], 567 nM; in series [5], 336 nM; in series [7], 616 nM; in series [8], 819 nM. In series [3], the solubility kinetic is 15 µg/mL (≈ 37.6 µM). Also, the Papp in series [6] came out at 5.03 ×10⁻⁶ cm/s.
`O=C(O)c1ccc(NC(=O)c2ccc3c(c2)N(S(=O)(=O)c2cccc(Cl)c2)CCS3(=O)=O)cc1`: the pH-dependent lipophilicity (logD) in series [1] came to 0.25. The half-inhibitory concentration (IC50) in series [2] came out at 15500 nM; in series [4] it was 39.5 nM; in series [5] it was 54.2 nM; in series [7], 5440 nM; in series [8], 20800 nM. In addition, in series [3], the solubility kinetic is greater than 626 µg/mL. Also, the Papp in series [6] was 0.86 ×10⁻⁶ cm/s.
On to `O=C1CCN1c1cccc(-c2n[nH]c([C@H]3CCCCN3C(=O)COc3ccccc3)n2)c1`, for which the logD in series [1] was determined as 2.9. The IC50 was greater than 100000 nM in series [2]; 316 nM in series [4]; 114 nM in series [5]; 44200 nM in series [7]; 74700 nM in series [8]. In addition, the solubility kinetic in series [3] turned out to be 33 µg/mL (≈ 76.5 µM). In addition, the Papp in series [6] was 2 ×10⁻⁶ cm/s.
`COc1ccc(Cl)cc1CN1C(=O)CSc2ccc(C(=O)Nc3nc(CC(=O)O)cs3)cc21` showed a logD in series [1] of 0.72. For the same compound, the IC50 in series [2] was 1720 nM; in series [4] it was 75.9 nM; in series [5], 125 nM; in series [7] it was greater than 100000 nM; in series [8], greater than 100000 nM. Also, the solubility kinetic in series [3] is 31 µg/mL (≈ 61.5 µM). Moreover, the Papp in series [6] worked out at 1.53 ×10⁻⁶ cm/s.
Consider `COc1ccc(Cl)cc1S(=O)(=O)N1CCOc2c(Cl)cc(C(=O)Nc3ccc(C(=O)O)cc3)cc21`, for which the log distribution coefficient (logD) in series [1] came to 3.15. In addition, the IC50 in series [2] came out at 2610 nM; in series [4], 49.4 nM; in series [5] it was 77 nM; in series [7] it was 578 nM; in series [8], 28200 nM. Also, in series [3], the solubility kinetic came out at 1 µg/mL (≈ 1.86 µM). Moreover, the Papp in series [6] was determined as 2.19 ×10⁻⁶ cm/s.
In series [1], `COc1ccc(Cl)cc1S(=O)(=O)N1CCS(=O)(=O)c2ccc(C(=O)Nc3ccc(C(=O)O)cc3)cc21` came in with a logD of 2.68. Also, the 50% inhibitory concentration (IC50) was greater than 100000 nM in series [2]; 12.6 nM in series [4]; 30 nM in series [5]; greater than 100000 nM in series [7]; greater than 100000 nM in series [8]. The solubility kinetic in series [3] was 3 µg/mL (≈ 5.44 µM). Also, the Papp in series [6] is 1.9 ×10⁻⁶ cm/s.
Regarding `COc1ccc(Cl)cc1S(=O)(=O)N1CCOc2c(Cl)cc(C(=O)Nc3ccc(CC(=O)O)cc3)cc21`, the logD in series [1] is 0.88. Besides, the half-inhibitory concentration (IC50) in series [2] was 1090 nM; in series [4], 100 nM; in series [5], 122 nM; in series [7] it was 78500 nM; in series [8] it was greater than 100000 nM. Further, the solubility kinetic in series [3] stood at 44 µg/mL (≈ 79.8 µM). Moreover, in series [6], the Papp was 3.23 ×10⁻⁶ cm/s.
For the compound `CC(=O)Nc1cc(-c2nc([C@H]3CCCCN3C(=O)COc3ccccc3)no2)ccn1`, in series [1], the log distribution coefficient (logD) came out at 2.54. Also, the IC50 is greater than 100000 nM in series [2]; 327 nM in series [4]; 50.9 nM in series [5]; greater than 100000 nM in series [7]; greater than 100000 nM in series [8]. In addition, in series [3], the solubility kinetic turned out to be 113 µg/mL (≈ 268 µM). Besides, the Papp in series [6] amounted to 5.4 ×10⁻⁶ cm/s.
On to `COc1ccc(C)cc1S(=O)(=O)N1CCc2ccc(C(=O)Nc3ccc(CC(=O)O)cc3)cc21`, for which the logD in series [1] was 0.11. Further, the half-inhibitory concentration (IC50) is 2210 nM in series [2]; 174 nM in series [4]; 237 nM in series [5]; greater than 100000 nM in series [7]; greater than 100000 nM in series [8]. Besides, in series [3], the solubility kinetic was 93 µg/mL (≈ 194 µM). For the same compound, in series [6], the Papp was found to be 2.21 ×10⁻⁶ cm/s.
Take `COc1ccc(Cl)cc1S(=O)(=O)N1CC(C(=O)O)Oc2ccc(C(=O)Nc3cccc(F)c3)cc21` (centres undefined): the log distribution coefficient (logD) in series [1] is -0.02. Also, the solubility kinetic in series [3] came out at 521 µg/mL (≈ 1000 µM). Further, the IC50 in series [4] is 30.1 nM; in series [5], 16.2 nM; in series [7], greater than 100000 nM; in series [8], greater than 100000 nM. Also, in series [6], the Papp is 0.14 ×10⁻⁶ cm/s.

These data come from ChEMBL document CHEMBL3431459, “Roche carnitine palmitoyltransferase modulator screening data (supplementary data associated with the publication CHEMBL2216752)”.
